According to patent US20050197350A1, “Novel quinoline, tetrahydroquinazoline, and pyrimidine derivatives and methods of treatment related to the use thereof” (TAISHO PHARMACEUTICAL CO., LTD., priority 2003, published 2005):

test system: MCH receptors; test: MCH receptor activity class (method not given); conditions: not given

| class | Compound |
| --- | --- |
| 1 | Cc1cc(N(C)C)nc(N[C@H]2CC[C@@H](C(=O)NCc3cc(F)ccc3F)CC2)n1 [Example 2583, cis-N-(2,5-difluorobenzyl)-4-{[4-(dimethylamino)-6-methylpyrimidin-2-yl]amino}cyclohexanecarboxamide] |

same assay, conditions: MCH receptor activity class 1-3 (percent of control at 10^-7 M or IC50)

| Compound | class |
| --- | --- |
| CN(C)c1nc(N[C@H]2CC[C@@H](CNC(=O)Nc3ccccc3Cl)CC2)nc2c1CCCC2 [compound 2451] | 3 (Class 3 The value of percent of control at 10^−7 M was more than 60% or the value of IC50 was more than 200 nM.) |
| CN(C)c1cc(N[C@H]2CC[C@@H](CNC(=O)Nc3cccc(Cl)c3Cl)CC2)nc2ccccc12 [compound 2394] | 2 (Class 2: The value of percent of control at 10^−7 M was from 40% to 60% or the value of IC′50 was from 50 nM to 200 nM.) |
| CCc1cccc(C(C)C)c1NC(=O)NC[C@H]1CC[C@@H](Nc2nc3c(c(N(C)C)n2)CCCC3)CC1 [compound 2468] | 1 (Class 1: The value of percent of control at 10^−7 M was less than 40% or the value of IC50 was less than 50 nM.) |
| Cc1c(Cl)cccc1NC(=O)NC[C@H]1CC[C@@H](Nc2nc3c(c(N(C)C)n2)CCCC3)CC1 [compound 2477] | 2 (Class 2: The value of percent of control at 10^−7 M was from 40% to 60% or the value of IC′50 was from 50 nM to 200 nM.) |
| COc1cc(OC)c(NC(=S)N[C@H]2CC[C@@H](Nc3nccc(N(C)C)n3)CC2)cc1Cl [compound 2342] | 1 (Class 1: The value of percent of control at 10^−7 M was less than 40% or the value of IC50 was less than 50 nM.) |

same assay, conditions: MCH receptor; class by percent of control at 10^-7 M or IC50

| Compound | class |
| --- | --- |
| CN(C)c1nc(N[C@H]2CC[C@@H](NC(=S)NCC3CC3)CC2)nc2c1CCCC2 [compound 2068] | 3 (Class 3 The value of percent of control at 10^−7 M was more than 60% or the value of IC50 was more than 200 nM.) |
| CN(C)c1nc(N[C@H]2CC[C@@H](NC(=S)Nc3ccc(S(N)(=O)=O)cc3)CC2)nc2c1CCCC2 [compound 2051] | 3 (Class 3 The value of percent of control at 10^−7 M was more than 60% or the value of IC50 was more than 200 nM.) |
| CN(C)c1cc(N[C@H]2CC[C@@H](NC(=O)C3CCCCC3)CC2)nc2ccccc12 [compound 97] | 3 (Class 3 The value of percent of control at 10^−7 M was more than 60% or the value of IC50 was more than 200 nM.) |
| CN(C)c1nc(N[C@H]2CC[C@@H](NC(=S)NCCCc3ccccc3)CC2)nc2c1CCCC2 [compound 2011] | 3 (Class 3 The value of percent of control at 10^−7 M was more than 60% or the value of IC50 was more than 200 nM.) |
| COc1cccc(CC(=O)N[C@H]2CC[C@@H](Nc3cc(N(C)C)c4ccccc4n3)CC2)c1 [compound 67] | 3 (Class 3 The value of percent of control at 10^−7 M was more than 60% or the value of IC50 was more than 200 nM.) |
| CCc1ccc(NC(=S)N[C@H]2CC[C@@H](Nc3nc4c(c(N(C)C)n3)CCCC4)CC2)cc1 [compound 1966] | 3 (Class 3 The value of percent of control at 10^−7 M was more than 60% or the value of IC50 was more than 200 nM.) |
| COc1cc(OC)cc(C(=O)NC[C@H]2CC[C@@H](Nc3cc(N(C)C)c4ccccc4n3)CC2)c1 [compound 203, N-[(cis-4-{[4-(dimethylamino)quinolin-2-yl]amino}cyclohexyl)methyl]-3,5-dimethoxybenzamide] | 3 (Class 3 The value of percent of control at 10^−7 M was more than 60% or the value of IC50 was more than 200 nM.) |

same assay, conditions: activity class 1-3: percent of control at 10^-7 M or IC50

| Compound | class |
| --- | --- |
| CCCCCCCCOC(=O)NC[C@H]1CC[C@@H](Nc2nccc(N(C)C)n2)CC1 [compound 1646] | 3 (Class 3 The value of percent of control at 10^−7 M was more than 60% or the value of IC50 was more than 200 nM.) |
| CN(C)c1cc(N[C@H]2CC[C@@H](CNC(=O)OCCOCc3ccccc3)CC2)nc2ccccc12 [compound 1559] | 3 (Class 3 The value of percent of control at 10^−7 M was more than 60% or the value of IC50 was more than 200 nM.) |

same assay, conditions: activity class per percent of control at 10^-7 M or IC50

| Compound | class |
| --- | --- |
| CC(CCN[C@H]1CC[C@@H](Nc2cc(N(C)C)c3ccccc3n2)CC1)c1ccccc1 (relative stereo) [compound 1106] | 3 (Class 3 The value of percent of control at 10^−7 M was more than 60% or the value of IC50 was more than 200 nM.) |

same assay, conditions: class 1-3 by percent of control at 10^-7 M or IC50

| Compound | class |
| --- | --- |
| CN(C)c1nc(N[C@H]2CC[C@@H](NC(=O)c3ccc(F)cc3Cl)CC2)nc2c1CCCC2 [compound 497] | 2 (Class 2: The value of percent of control at 10^−7 M was from 40% to 60% or the value of IC′50 was from 50 nM to 200 nM.) |
| CN(C)c1ccnc(N[C@H]2CC[C@@H](CNC(=O)c3cc(C(C)(C)C)nn3C)CC2)n1 [compound 431] | 3 (Class 3 The value of percent of control at 10^−7 M was more than 60% or the value of IC50 was more than 200 nM.) |
| CN(C)c1nc(N[C@H]2CC[C@@H](NC(=O)c3ccc(C(F)(F)F)cc3)CC2)nc2c1CCCC2 [compound 553] | 3 (Class 3 The value of percent of control at 10^−7 M was more than 60% or the value of IC50 was more than 200 nM.) |
| Cc1ccc(Cl)c(C(=O)NC[C@H]2CC[C@@H](Nc3nccc(N(C)C)n3)CC2)c1F [compound 453] | 3 (Class 3 The value of percent of control at 10^−7 M was more than 60% or the value of IC50 was more than 200 nM.) |

same assay, conditions: class by percent of control at 10^-7 M or IC50

| Compound | class |
| --- | --- |
| CN(C)c1nc(N[C@H]2CC[C@@H](CNCc3cn(C)c4ccccc34)CC2)nc2c1CCCC2 [compound 1421] | 3 (Class 3 The value of percent of control at 10^−7 M was more than 60% or the value of IC50 was more than 200 nM.) |
| CC(C)NC(=O)N[C@H]1CC[C@@H](Nc2nc3c(c(N(C)C)n2)CCCC3)CC1 [compound 1830] | 3 (Class 3 The value of percent of control at 10^−7 M was more than 60% or the value of IC50 was more than 200 nM.) |
| CN(C)c1ccnc(N[C@H]2CC[C@@H](CNC(=O)C3c4ccccc4Oc4ccccc43)CC2)n1 [compound 947, N-[(cis-4-{[4-(dimethylamino)pyrimidin-2-yl]amino}cyclohexyl)methyl]-9H-xanthene-9-carboxamide] | 1 (Class 1: The value of percent of control at 10^−7 M was less than 40% or the value of IC50 was less than 50 nM.) |
| COc1cc([N+](=O)[O-])ccc1C(=O)N[C@H]1CC[C@@H](Nc2cc(N(C)C)c3ccccc3n2)CC1 [compound 771, N-(cis-4-{[4-(dimethylamino)quinolin-2-yl]amino}cyclohexyl)-2-methoxy-4-nitrobenzamide] | 2 (Class 2: The value of percent of control at 10^−7 M was from 40% to 60% or the value of IC′50 was from 50 nM to 200 nM.) |
| 4-({[(cis-4-{[4-(dimethylamino)pyrimidin-2-yl]amino}-cyclohexyl)methyl]amino}methyl)-2,6-dimethoxyphenol [compound 1254] | 1 (Class 1: The value of percent of control at 10^−7 M was less than 40% or the value of IC50 was less than 50 nM.) |
| CN(C)c1cc(N[C@H]2CC[C@@H](NC(=O)c3csc([N+](=O)[O-])c3)CC2)nc2ccccc12 [compound 767, N-(cis-4-{[4-(dimethylamino)quinolin-2-yl]amino}cyclohexyl)-5-nitrothiophene-3-carboxamide] | 1 (Class 1: The value of percent of control at 10^−7 M was less than 40% or the value of IC50 was less than 50 nM.) |
| CC(C(=O)N[C@H]1CC[C@@H](Nc2nccc(N(C)C)n2)CC1)c1ccc(-c2ccccc2)c(F)c1 (relative stereo) [compound 847] | 3 (Class 3 The value of percent of control at 10^−7 M was more than 60% or the value of IC50 was more than 200 nM.) |
| CN(C)c1nc(N[C@H]2CC[C@@H](CNC(=O)c3cccc([N+](=O)[O-])c3)CC2)nc2c1CCCC2 [compound 606] | 3 (Class 3 The value of percent of control at 10^−7 M was more than 60% or the value of IC50 was more than 200 nM.) |
| COc1ccccc1/C=C/CN[C@H]1CC[C@@H](Nc2nc3c(c(N(C)C)n2)CCCC3)CC1 [compound 1354] | 3 (Class 3 The value of percent of control at 10^−7 M was more than 60% or the value of IC50 was more than 200 nM.) |
| CN(C)c1nc(N[C@H]2CC[C@@H](NC(=S)Nc3c(F)cc(Br)cc3Br)CC2)nc2c1CCCC2 [compound 1780, N-(2,4-dibromo-6-fluorophenyl)-N′-(cis-4-{[4-(dimethylamino)-5,6,7,8-tetrahydroquinazolin-2-yl]amino}cyclohexyl)thiourea] | 2 (Class 2: The value of percent of control at 10^−7 M was from 40% to 60% or the value of IC′50 was from 50 nM to 200 nM.) |
| CN(C)c1nc(N[C@H]2CC[C@@H](CNCc3ccccc3OC(F)(F)F)CC2)nc2c1CCCC2 [compound 1410] | 3 (Class 3 The value of percent of control at 10^−7 M was more than 60% or the value of IC50 was more than 200 nM.) |
| CN(C)c1cc(N[C@H]2CC[C@@H](NC(=O)c3ccc(I)o3)CC2)nc2ccccc12 [compound 680, N-(cis-4-{[4-(dimethylamino)quinolin-2-yl]amino}cyclohexyl)-5-iodo-2-furamide] | 1 (Class 1: The value of percent of control at 10^−7 M was less than 40% or the value of IC50 was less than 50 nM.) |
| CCOc1ccccc1C(=O)N[C@H]1CC[C@@H](Nc2nccc(N(C)C)n2)CC1 [compound 290] | 3 (Class 3 The value of percent of control at 10^−7 M was more than 60% or the value of IC50 was more than 200 nM.) |
| COc1cc(OC)c(NC(=O)N[C@H]2CC[C@@H](Nc3nccc(N(C)C)n3)CC2)cc1Cl [compound 2247] | 1 (Class 1: The value of percent of control at 10^−7 M was less than 40% or the value of IC50 was less than 50 nM.) |

same assay, conditions: class by percent of control at 10^−7 M or IC50

| Compound | class |
| --- | --- |
| COc1cc(OC)cc(C(=O)NC[C@H]2CC[C@@H](Nc3ncc(C)c(N(C)C)n3)CC2)c1 [compound 2694, N-[(cis-4-{[4-(dimethylamino)-5-methylpyrimidin-2-yl]amino}cyclohexyl)methyl]-3,5-dimethoxybenzamide] | 1 (Class 1: The value of percent of control at 10^−7 M was less than 40% or the value of IC50 was less than 50 nM.) |
| Cc1nc(N[C@H]2CC[C@@H](NC(=O)c3cc(C(F)(F)F)cc(C(F)(F)F)c3)CC2)nc(N(C)C)c1C [compound 2841, N-(cis-4-{[4-(dimethylamino)-5,6-dimethylpyrimidin-2-yl]amino}cyclohexyl)-3,5-bis(trifluoromethyl)benzamide] | 1 (Class 1: The value of percent of control at 10^−7 M was less than 40% or the value of IC50 was less than 50 nM.) |
